Test results as given in ChEMBL document CHEMBL1909046, “DrugMatrix in vitro pharmacology data”.
pIC50, pKi: −log10 of the molar value.

Experiments:
[1] = target: Beta-1 adrenergic receptor (Homo sapiens, UniProt P08588); assay: DRUGMATRIX: Adrenergic beta1 radioligand binding (ligand: [125I] Cyanopindolol); assay type: cell membranes, CHO-K1, Membrane; settings: Not Active = under 50% inhibition at 10 µM; for IC50: cho-k1
Endothelin-1 receptor = target: T1, Endothelin-1 receptor (Homo sapiens, UniProt P25101); assay type: cell membranes, Membrane; settings: cho-k1; note: in other assays of this panel Not Active means under 50% inhibition at 10 µM
T1 sequence (P25101 whole entry): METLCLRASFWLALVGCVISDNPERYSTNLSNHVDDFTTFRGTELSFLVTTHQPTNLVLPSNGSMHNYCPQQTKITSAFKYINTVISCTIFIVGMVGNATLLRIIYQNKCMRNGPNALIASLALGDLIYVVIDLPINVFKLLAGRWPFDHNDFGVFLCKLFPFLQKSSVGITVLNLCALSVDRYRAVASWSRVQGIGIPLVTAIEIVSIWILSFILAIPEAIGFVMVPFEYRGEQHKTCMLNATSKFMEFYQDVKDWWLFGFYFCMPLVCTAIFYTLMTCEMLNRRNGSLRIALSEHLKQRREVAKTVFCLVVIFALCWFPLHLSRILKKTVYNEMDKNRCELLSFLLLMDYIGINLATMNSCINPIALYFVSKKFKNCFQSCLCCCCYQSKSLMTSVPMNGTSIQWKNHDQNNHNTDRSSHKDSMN

[2] = target: T2, Type-2 angiotensin II receptor (Homo sapiens, UniProt P50052); assay: biochemical; assay type: cell-based, CHO-K1; settings: cho-k1; note: in other assays of this panel Not Active means under 50% inhibition at 10 µM
T2 sequence (P50052 whole entry): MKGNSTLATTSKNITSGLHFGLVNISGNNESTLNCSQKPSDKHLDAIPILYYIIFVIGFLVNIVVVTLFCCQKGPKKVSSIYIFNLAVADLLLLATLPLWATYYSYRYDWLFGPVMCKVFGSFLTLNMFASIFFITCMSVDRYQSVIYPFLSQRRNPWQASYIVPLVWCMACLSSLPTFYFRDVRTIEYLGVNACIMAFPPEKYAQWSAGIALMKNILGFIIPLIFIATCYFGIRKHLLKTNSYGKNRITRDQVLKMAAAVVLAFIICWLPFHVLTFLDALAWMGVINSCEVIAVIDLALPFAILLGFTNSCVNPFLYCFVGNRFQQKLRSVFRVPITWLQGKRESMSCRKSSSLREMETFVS

[3] = target: Beta-2 adrenergic receptor (Homo sapiens, UniProt P07550); assay: DRUGMATRIX: Adrenergic beta2 radioligand binding (ligand: [3H] CGP-12177); assay type: cell membranes, CHO, Membrane; settings: Not Active = under 50% inhibition at 10 µM; for IC50: cho
Sequence of Beta-2 adrenergic receptor (P07550 whole entry): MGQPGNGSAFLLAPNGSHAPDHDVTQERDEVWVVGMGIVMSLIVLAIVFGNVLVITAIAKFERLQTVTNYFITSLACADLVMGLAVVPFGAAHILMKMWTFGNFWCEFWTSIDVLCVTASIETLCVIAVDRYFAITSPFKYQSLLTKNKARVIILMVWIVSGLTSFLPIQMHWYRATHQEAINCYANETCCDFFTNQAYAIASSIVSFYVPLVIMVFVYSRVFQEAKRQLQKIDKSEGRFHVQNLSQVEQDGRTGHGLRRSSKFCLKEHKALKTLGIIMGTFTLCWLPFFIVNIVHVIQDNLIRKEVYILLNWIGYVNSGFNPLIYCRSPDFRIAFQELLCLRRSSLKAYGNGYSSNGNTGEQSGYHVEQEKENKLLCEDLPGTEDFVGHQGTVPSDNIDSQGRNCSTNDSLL

Melanocortin receptor 4 = Melanocortin receptor 4 (Homo sapiens, UniProt P32245); assay type: cell membranes, Membrane; settings: hek293; note: in other assays of this panel Not Active means under 50% inhibition at 10 µM
Sequence of Melanocortin receptor 4 (P32245 whole entry): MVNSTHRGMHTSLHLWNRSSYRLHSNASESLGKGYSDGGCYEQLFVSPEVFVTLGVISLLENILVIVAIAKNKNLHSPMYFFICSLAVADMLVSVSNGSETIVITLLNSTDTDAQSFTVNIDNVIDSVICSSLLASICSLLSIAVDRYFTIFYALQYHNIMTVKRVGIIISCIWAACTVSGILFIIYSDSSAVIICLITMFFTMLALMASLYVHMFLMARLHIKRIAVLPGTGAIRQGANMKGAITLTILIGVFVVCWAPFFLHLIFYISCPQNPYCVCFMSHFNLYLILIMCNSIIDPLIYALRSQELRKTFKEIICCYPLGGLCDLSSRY

[4] = target: T3, Alpha-1D adrenergic receptor (Homo sapiens, UniProt P25100); assay type: cell membranes, HEK293, Membrane; settings: for IC50: hek293; for pIC50: read-out: IC50; for pKi: read-out: Ki; for all read-outs here: in other assays of this panel Not Active means under 50% inhibition at 10 µM
T3 sequence (P25100 whole entry): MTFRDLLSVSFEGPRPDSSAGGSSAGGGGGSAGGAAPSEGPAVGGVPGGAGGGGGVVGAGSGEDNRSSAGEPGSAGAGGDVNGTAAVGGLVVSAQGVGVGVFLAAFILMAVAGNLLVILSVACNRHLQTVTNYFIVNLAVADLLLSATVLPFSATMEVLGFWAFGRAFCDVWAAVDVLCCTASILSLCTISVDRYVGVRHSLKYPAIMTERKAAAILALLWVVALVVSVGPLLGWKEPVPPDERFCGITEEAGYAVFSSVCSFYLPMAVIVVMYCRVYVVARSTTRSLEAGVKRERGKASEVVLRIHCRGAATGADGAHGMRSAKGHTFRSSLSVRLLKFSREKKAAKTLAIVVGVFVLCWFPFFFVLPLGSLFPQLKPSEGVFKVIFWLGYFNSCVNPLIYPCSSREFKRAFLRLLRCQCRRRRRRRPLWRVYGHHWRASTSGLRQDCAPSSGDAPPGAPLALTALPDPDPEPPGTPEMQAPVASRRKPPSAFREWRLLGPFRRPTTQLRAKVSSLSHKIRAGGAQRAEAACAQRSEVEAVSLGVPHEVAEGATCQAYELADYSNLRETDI

Sequence of Beta-1 adrenergic receptor (P08588 whole entry): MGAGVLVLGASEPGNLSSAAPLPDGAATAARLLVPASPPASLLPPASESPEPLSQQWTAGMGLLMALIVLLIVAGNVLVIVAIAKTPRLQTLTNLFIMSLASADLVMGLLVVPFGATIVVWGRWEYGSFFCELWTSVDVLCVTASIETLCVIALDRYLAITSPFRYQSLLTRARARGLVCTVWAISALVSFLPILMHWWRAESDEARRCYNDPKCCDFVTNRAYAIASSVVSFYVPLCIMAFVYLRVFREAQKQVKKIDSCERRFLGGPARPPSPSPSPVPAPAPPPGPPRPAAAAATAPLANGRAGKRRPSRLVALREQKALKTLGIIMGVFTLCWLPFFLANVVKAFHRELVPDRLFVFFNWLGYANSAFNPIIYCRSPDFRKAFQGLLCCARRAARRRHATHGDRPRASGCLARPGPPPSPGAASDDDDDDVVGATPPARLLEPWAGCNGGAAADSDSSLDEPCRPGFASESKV

| SMILES | IC50 [1] | IC50 (Endothelin-1 receptor) | IC50 [2] | IC50 [3] | IC50 (Melanocortin receptor 4) | IC50 [4] | pIC50 [4] | pKi [4] | pIC50 ([1]; read-out: IC50) | pKi ([1]; read-out: Ki) | pIC50 ([3]; read-out: IC50) | pKi ([3]; read-out: Ki) |
| --- | --- | --- | --- | --- | --- | --- | --- | --- | --- | --- | --- | --- |
| CCOc1nc2cccc(C(=O)O)c2n1Cc1ccc(-c2ccccc2-c2nnn[nH]2)cc1 | Not Active | Not Active | Not Active | Not Active | Not Active | Not Active | – | – | – | – | – | – |
| O=C(O)CCCc1cccs1 | Not Active | Not Active | Not Active | Not Active | Not Active | Not Active | – | – | – | – | – | – |
| COc1ccccc1N | Not Active | Not Active | Not Active | Not Active | Not Active | Not Active | – | – | – | – | – | – |
| O=C(c1ccccc1F)N1CCC(Cc2ccccc2)CC1 | Not Active | Not Active | Not Active | Not Active | Not Active | Not Active | – | – | – | – | – | – |
| Cc1c(O)cccc1C(=O)N[C@@H](CSc1ccccc1)[C@H](O)CN1C[C@H]2CCCC[C@H]2C[C@H]1C(=O)NC(C)(C)C | – | Not Active | Not Active | Not Active | Not Active | Not Active | – | – | – | – | – | – |
| CC(O)COC[C@H]1O[C@@H]2O[C@H]3[C@H](O)[C@@H](O)[C@@H](O[C@H]4[C@H](O)[C@@H](O)[C@@H](O[C@H]5[C@H](O)[C@@H](O)[C@@H](O[C@H]6[C@H](O)[C@@H](O)[C@@H](O[C@H]7[C@H](O)[C@@H](O)[C@@H](O[C@H]8[C@H](O)[C@@H](O)[C@@H](O[C@H]1[C@H](O)[C@H]2O)O[C@@H]8COCC(C)O)O[C@@H]7COCC(C)O)O[C@@H]6COCC(C)O)O[C@@H]5COCC(C)O)O[C@@H]4COCC(C)O)O[C@@H]3COCC(C)O (stereo partly drawn) [2-HYDROXYPROPYL-BETA-CYCLODEXTRIN] | Not Active | Not Active | Not Active | Not Active | Not Active | Not Active | – | – | – | – | – | – |
| NC(=O)c1cccc(N)c1 [3-AMINOBENZAMIDE] | Not Active | Not Active | Not Active | Not Active | Not Active | Not Active | – | – | – | – | – | – |
| C[C@H]1O[C@H](O[C@H]2[C@H](O)[C@@H](O)[C@@H](O[C@H]3[C@H](O)[C@@H](O)C(O)O[C@@H]3CO)O[C@@H]2CO)[C@H](O)[C@@H](O)[C@@H]1N[C@H]1C=C(CO)[C@@H](O)[C@H](O)[C@H]1O (some centres not stated) [ACARBOSE] | Not Active | Not Active | Not Active | Not Active | Not Active | Not Active | – | – | – | – | – | – |
| CC[C@H]1[C@@H]2C[C@H]3[C@@H]4N(C)c5ccccc5[C@]45C[C@@H]([C@@H]2[C@H]5O)N3[C@@H]1O [AJMALINE] | Not Active | Not Active | Not Active | Not Active | Not Active | Not Active | – | – | – | – | – | – |
| NC12CC3CC(CC(C3)C1)C2 [AMANTADINE] | Not Active | Not Active | Not Active | Not Active | Not Active | Not Active | – | – | – | – | – | – |
| NCCCNCCSP(=O)(O)O [AMIFOSTINE] | Not Active | Not Active | Not Active | Not Active | Not Active | Not Active | – | – | – | – | – | – |
| CN(C)CCC=C1c2ccccc2CCc2ccccc21 [AMITRIPTYLINE] | Not Active | Not Active | Not Active | Not Active | Not Active | – | 6.98 | 7.28 | – | – | – | – |
| CC(=O)Oc1ccccc1C(=O)O [ASPIRIN] | Not Active | Not Active | Not Active | Not Active | Not Active | Not Active | – | – | – | – | – | – |
| CC(C)c1c(C(=O)Nc2ccccc2)c(-c2ccccc2)c(-c2ccc(F)cc2)n1CC[C@@H](O)C[C@@H](O)CC(=O)O [ATORVASTATIN] | Not Active | Not Active | Not Active | Not Active | Not Active | Not Active | – | – | – | – | – | – |
| CC(=O)OC[C@H]1O[C@@H](n2ncc(=O)[nH]c2=O)[C@H](OC(C)=O)[C@@H]1OC(C)=O [AZARIBINE] | Not Active | Not Active | Not Active | Not Active | Not Active | Not Active | – | – | – | – | – | – |
| C[C@H]1[C@H](NC(=O)/C(=N\OC(C)(C)C(=O)O)c2csc(N)n2)C(=O)N1S(=O)(=O)O [AZTREONAM] | Not Active | Not Active | Not Active | Not Active | Not Active | Not Active | – | – | – | – | – | – |
| O=C(O)CCNC(=O)c1ccc(/N=N/c2ccc(O)c(C(=O)O)c2)cc1 [BALSALAZIDE] | Not Active | Not Active | Not Active | Not Active | Not Active | Not Active | – | – | – | – | – | – |
| COc1cc(OC)c(C(=O)CCCN2CCCC2)c(OC)c1 [BUFLOMEDIL] | Not Active | Not Active | Not Active | Not Active | Not Active | Not Active | – | – | – | – | – | – |
| Cn1c(=O)c2c(ncn2C)n(C)c1=O [CAFFEINE] | Not Active | Not Active | Not Active | Not Active | Not Active | Not Active | – | – | – | – | – | – |
| ClC(Cl)(Cl)Cl [CARBON TETRACHLORIDE] | Not Active | Not Active | Not Active | Not Active | Not Active | Not Active | – | – | – | – | – | – |
| CO/N=C(\C(=O)N[C@@H]1C(=O)N2C(C(=O)O)=C(COC(C)=O)CS[C@H]12)c1csc(N)n1 [CEFOTAXIME] | Not Active | Not Active | Not Active | Not Active | Not Active | Not Active | – | – | – | – | – | – |
| CNC1=Nc2ccc(Cl)cc2C(c2ccccc2)=[N+]([O-])C1 [CHLORDIAZEPOXIDE] | Not Active | Not Active | Not Active | Not Active | Not Active | Not Active | – | – | – | – | – | – |
| Cc1cc(O)cc(C)c1Cl [CHLOROXYLENOL] | Not Active | Not Active | Not Active | Not Active | Not Active | Not Active | – | – | – | – | – | – |
| CCCNC(=O)NS(=O)(=O)c1ccc(Cl)cc1 [CHLORPROPAMIDE] | Not Active | Not Active | Not Active | Not Active | Not Active | Not Active | – | – | – | – | – | – |
| NS(=O)(=O)c1cc(C2(O)NC(=O)c3ccccc32)ccc1Cl (configuration not stated) [CHLORTHALIDONE] | Not Active | Not Active | Not Active | Not Active | Not Active | Not Active | – | – | – | – | – | – |
| O=C(O)CC(O)(CC(=O)O)C(=O)O [CITRIC ACID] | – | Not Active | Not Active | Not Active | Not Active | Not Active | – | – | – | – | – | – |
| CC(C)NCC(O)c1ccccc1Cl (configuration not stated) [CLORPRENALINE] | – | Not Active | Not Active | – | Not Active | Not Active | – | – | 5.59 | 5.82 | 5.70 | 5.86 |
| CN1CCN(C(c2ccccc2)c2ccccc2)CC1 [CYCLIZINE] | Not Active | Not Active | Not Active | Not Active | Not Active | – | 5.92 | 6.22 | – | – | – | – |
| CN1C[C@@H]2C[C@H]1CN2c1cc2c(cc1F)c(=O)c(C(=O)O)cn2C1CC1 [DANOFLOXACIN] | Not Active | Not Active | Not Active | Not Active | Not Active | Not Active | – | – | – | – | – | – |
| CN1CCC(=C2c3ccccc3CC(=O)c3sccc32)CC1 [KETOTIFEN] | – | Not Active | Not Active | Not Active | Not Active | – | 5.43 | 5.74 | – | – | – | – |
